In patent publication US20190008837A1, “OPHTHALMIC COMPOSITIONS AND ASSOCIATED METHODS” (University of Utah Research Foundation, priority 2016, published 2019):

System: cornea neuron fibers of scratched corneas
Test: Cornea scratch model, cornea neuron regeneration on flatmounts (Example 1)
Format: in vivo, mice
Conditions: eye drops 3 times per day for 5 days, corneas harvested on the 7th day, beta III tubulin staining
Protocol: Nine mice were divided into three treatment groups having three mice each. The corneas of each of the mice in each of the groups were scratched. The control group was administered a standard blank (e.g. pacebo) composition. The first treatment group received pergolide. The second treatment group received cabergoline. Each of the eye drops was applied 3 times per day for 5 days. The corneas were harvested on the 7th day. The corneas were then fixed in acetone for 1 hour at room temperature and then blocked in 3% BSA for 1 hour. The cornea flatmounts were stained with primary antibody, anti-beta III tubulin antibody (rabbit polyclonal, ab18207) at 1:200 in 3% BSA blocking buffer overnight at 4° C. After washing 3 times for 10 minutes, each of the cornea flatmounts were incubated with secondary antibody (goat anti rabbit, Invitrogen Alexa Fluor 555) at 1:200 in 3% BSA for 1 hour at room temperature. The flatmounts were again washed 3 times for 10 minutes each. Images of the cornea neuron fibers were taken and analyzed under EVOS microscopy.

C=CCN1C[C@H](C(=O)N(CCCN(C)C)C(=O)NCC)C[C@@H]2c3cccc4[nH]cc(c34)C[C@H]21 [cabergoline]
cornea neuron regeneration compared to the blank control group: no neuron regeneration
